US11484608B2, “Non-invasive assessment of hepatic mitochondrial metabolism by positional isotopomer NMR tracer analysis (PINTA)” (YALE UNIVERSITY, priority 2017, dated 2022)

How the values were obtained:
[1] = test system: hepatic mitochondrial oxidation, NAFLD, glucose tolerance; experiment: Chronic 10-day glucagon infusion in high fat fed rats; type: in vivo, rat
Method: During week 3 of the diet, rats underwent surgery under isoflurane anesthesia to place catheters in the jugular vein and carotid artery, and recovery was confirmed by regaining the pre-surgical body weight prior to in vivo studies. […] Rats were fasted for 8 hr prior to sacrifice with IV pentobarbital.
In the rat studies, blood was collected from the jugular venous catheter. In both species, samples were immediately centrifuged (12,000 rpm) to separate plasma from red blood cells. PINTA analysis of hepatic mitochondrial fluxes was employed in both rats and mice (see Example 1). Briefly, mice were infused with a two-hour primed (5 min, 3×)-continuous infusion of [3-^13C] lactate (40 μmol kg^−1 min^−1) and [1,2,3,4,5,6,6-^2H7] glucose (0.1 mg kg^−1 min^−1). Rats were infused with lactate at the same rate, as well as [3-^3H] glucose (0.1 mCi kg^−1 min^−1). At the conclusion of the study, animals were euthanized with IV pentobarbital.
In the glucose tolerance tests, rodents were injected with 1 g kg^−1 50% dextrose (rats) or 10% dextrose (mice) intraperitoneally. Blood samples were taken through the venous catheter (rats) or by tail bleeding (mice) for measurement of plasma glucose and insulin concentrations as described below (Biochemical analysis).
Plasma glucose concentrations were measured using a YSI Glucose Analyzer. […] Plasma NEFA concentrations were measured using the Wako NEFA assay, while plasma glycerol and plasma and liver amino acid concentrations were measured by GC/MS. […] Protein concentrations were measured by Western blot, using antibodies from Santa Cruz (PC, PEPCK, CAMKII), Cell Signaling (ATGL, pCAMKIV, CAMKIV, pCRTC2, CRTC2, pACC, ACC, pAMPK, AMPK, pHSL, HSL, GAPDH, and β-actin), Novus Biologicals (pCAMKII), Abcam (pATGL), LSBio (pInsP3R-I), and BD Transduction Laboratories (InsP3R-II, InsP3R-III, PKCε). The antibody to pATGL was kindly provided by Dr. Hei Sook Sul, while the antibody to total InsP3R-I was custom-made using an epitope against the last 18 amino acids of InsP3R-I. Gluconeogenic gene mRNA expression was measured by qPCR^45 using primers sequences as follows: […]

[2] = test system: primary mouse hepatocytes; experiment: Oxygen consumption in isolated hepatocytes (Seahorse); type: cell-based
Method: To assess oxygen consumption, primary mouse hepatocytes were isolated as described above and plated on collagen-I coated XF24 V7 cell culture plates (1.2×10^4 cells per well) in 2 mL recovery media as previously described (Camporez, J. P. et al. Endocrinology 154, 3099-3109). Following incubation for 6 hr at 37° C. and 5% CO2, the cells were washed twice with 1 ml Low Glucose Culture Media and incubated overnight in 250 μl low glucose culture media at 37° C. and 5% CO2. The following morning, cells were washed with XF24 assay media (DMEM Base containing 1.0 mM pyruvate, 2 mM glutamine and 5.5 mM glucose, pH 7.4). 500 μL of XF24 Assay Media was added to each well and plates were equilibrated at 37° C. for 1 h. Four measurements of basal oxygen consumption rates (picomoles per minute) were recorded on a Seahorse Bioscience XF^e 24 Analyzer (Seahorse Biosciences) using an instrument protocol of 3-minute mix, 2-minute wait, and 3-minute measure. […] Ten measurements were taken following injection and the average of eight measurements were used for subsequent analyses. Oxygen consumption rates were normalized to total protein content and expressed as fold change compared to vehicle-treated cells. Experiments were repeated three times using 3-4 mice per genotype.

[3] = HFD rats, two hours after withdrawal of glucagon infusion
[4] = intraperitoneal glucose tolerance test, HFD rats
[5] = rat liver, chronic glucagon infusion
[6] = rats, chronic glucagon infusion

glucagon
food intake, body weight, and hepatic ceramide content ([1]; HFD rats, chronic glucagon): similar | hepatic VPK flux ([1]; HFD rats, chronic glucagon): did not change | hepatic VPK flux as proportion of hepatic VPC flux ([1]; HFD rats, chronic glucagon): 15-20% | liver glycogen content ([1]; HFD rats, chronic glucagon): reductions | protein kinase C-epsilon (PKCε) translocation ([1]; HFD rats, chronic glucagon): marked reductions | reductions in hepatic triglyceride and diacylglycerol concentrations ([1]; HFD rats, chronic glucagon): 50-90% | hepatic acetyl- and malonyl-CoA content ([1]; HFD rats, glucagon withdrawn four hours before sacrifice): suppression | increase in rates of hepatic mitochondrial oxidation ([1]; HFD rats, ten days glucagon 5 ng kg^−1 min^−1): two-fold | reductions in fasting plasma glucose [1, 3]: 1.4 mM | reductions in fasting plasma insulin concentrations [1, 3]: 50% | reduction in glucose area under the curve [1, 4]: 20% | reduction in insulin area under the curve [1, 4]: 60% | Cytosolic DAG C16, C16 [1, 5]: 1.8 ± 0.2 nmol/g | Cytosolic DAG C16, C18_2 [1, 5]: 7.2 ± 1.0 nmol/g | Cytosolic DAG C16 C20_4 [1, 5]: 0.5 ± 0.1 nmol/g | Cytosolic DAG C18, C16 [1, 5]: 1.7 ± 0.1 nmol/g | Cytosolic DAG C18, C18 [1, 5]: 5.6 ± 0.6 nmol/g | Cytosolic DAG C18 C20_4 [1, 5]: 13.6 ± 1.1 nmol/g | Cytosolic DAG C18_1, C18 [1, 5]: 0.6 ± 0.1 nmol/g | Cytosolic DAG C18_1, C18_1 [1, 5]: 4.2 ± 0.5 nmol/g | Cytosolic DAG C18_1, C18_2 [1, 5]: 4.0 ± 0.5 nmol/g | Cytosolic DAG C18_1 C16 [1, 5]: 5.3 ± 0.9 nmol/g | Cytosolic DAG C18_2, C18 [1, 5]: 0.9 ± 0.1 nmol/g | Cytosolic DAG C18_2, C18_2 [1, 5]: 3.6 ± 0.6 nmol/g | Cytosolic DAG C20_4 C20_5 [1, 5]: 0.5 ± 0.1 nmol/g | Cytosolic DAG Total DAG [1, 5]: 38.3 ± 3.1 nmol/g | Membrane DAG C16, C16 [1, 5]: 10.2 ± 2.6 nmol/g | Membrane DAG C16, C18_2 [1, 5]: 97.3 ± 13.4 nmol/g | Membrane DAG C16 C20_4 [1, 5]: 4.2 ± 0.7 nmol/g | Membrane DAG C18, C16 [1, 5]: 4.9 ± 0.5 nmol/g | Membrane DAG C18, C18 [1, 5]: 6.5 ± 0.5 nmol/g | Membrane DAG C18 C20_4 [1, 5]: 21.5 ± 2.4 nmol/g | Membrane DAG C18_1, C18 [1, 5]: 3.6 ± 0.4 nmol/g | Membrane DAG C18_1, C18_1 [1, 5]: 44.1 ± 7.2 nmol/g | Membrane DAG C18_1, C18_2 [1, 5]: 58.7 ± 7.8 nmol/g | Membrane DAG C18_1 C16 [1, 5]: 50.0 ± 9.0 nmol/g | Membrane DAG C18_2, C18 [1, 5]: 7.8 ± 0.7 nmol/g | Membrane DAG C18_2, C18_2 [1, 5]: 44.0 ± 10.7 nmol/g | Membrane DAG Total DAG [1, 5]: 364.0 ± 44.7 nmol/g | Ceramide C16 [1, 6]: 40.1 ± 10.2 nmol/g | Ceramide C18 [1, 6]: 7.1 ± 1.4 nmol/g | Ceramide C20 [1, 6]: 15.9 ± 3.7 nmol/g | Ceramide C22 [1, 6]: 26.9 ± 5.2 nmol/g | Ceramide C24 [1, 6]: 52.8 ± 10.9 nmol/g | Ceramide C24:1 [1, 6]: 15.2 ± 3.9 nmol/g | Total ceramide [1, 6]: 158.0 ± 33.4 nmol/g | increases in hepatic mitochondrial fat oxidation (VFAO) ([1]; short-term continuous glucagon treatment): two-fold | stimulation of mitochondrial oxidation ([2]; InsP3R-I KO hepatocytes from male mice): blunted | stimulation of mitochondrial oxidation ([2]; WT hepatocytes from male mice): ~60% | oxygen consumption ([2]; isolated WT hepatocytes, 100 nM glucagon, not InsP3R-I KO): increase
